Reference: patent EP4755880A1, “SUBSTITUTED NITROGEN-CONTAINING BICYCLIC COMPOUND AND USE THEREOF” (Sunshine Lake Pharma Co., Ltd., priority 2023, dated 2025)

How the values were obtained:
PARP1 = PARP1 (Homo sapiens, UniProt P09874); test: Inhibition of PARP1 enzyme activity (ELISA, chemiluminescence); type: biochemical; conditions: for IC50: ELISA, histone-coated plate, NAD+, 60 min at 25 °C; for Selectivity PARP2/PARP1: ratio of PARP2 IC50 to PARP1 IC50
PARP2 = PARP2 (Homo sapiens, UniProt Q9UGN5); test: biochemical;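 note: PARP2 enzyme ELISA on histone-coated plates, Strep-HRP detection with chemiluminescence read-out, 10 min compound preincubation with enzyme, inhibition scaled between Max and Min signal controls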
Chain of PARP2 (Q9UGN5 whole entry): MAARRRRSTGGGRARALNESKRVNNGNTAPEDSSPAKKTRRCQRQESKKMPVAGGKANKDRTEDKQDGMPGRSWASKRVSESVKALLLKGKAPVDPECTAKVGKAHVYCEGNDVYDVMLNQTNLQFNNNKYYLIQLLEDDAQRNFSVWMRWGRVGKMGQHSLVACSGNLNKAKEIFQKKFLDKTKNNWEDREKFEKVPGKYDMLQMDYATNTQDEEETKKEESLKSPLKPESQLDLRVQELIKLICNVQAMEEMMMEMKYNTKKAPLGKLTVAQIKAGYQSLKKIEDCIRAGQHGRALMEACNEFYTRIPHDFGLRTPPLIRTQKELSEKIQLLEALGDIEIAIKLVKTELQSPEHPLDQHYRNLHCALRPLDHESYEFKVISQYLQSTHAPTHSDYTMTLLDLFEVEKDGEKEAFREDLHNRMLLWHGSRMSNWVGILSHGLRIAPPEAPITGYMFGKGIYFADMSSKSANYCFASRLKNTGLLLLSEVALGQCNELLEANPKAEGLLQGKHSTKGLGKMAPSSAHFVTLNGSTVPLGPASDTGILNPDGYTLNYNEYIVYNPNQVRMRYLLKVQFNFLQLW

DLD-1 BRCA2(-/-) cells = test: Inhibition of proliferation of DLD-1 BRCA2(-/-) cells (CTG method); type: cell-based; conditions: Homo sapiens, DLD-1, 168 h; 7 days incubation, CellTiter-Glo
Procedure: • 1. Cell Pretreatment: DLD-1 BRCA2(-/-) cells were cultured in growth medium 1640 + 10% FBS (fetal bovine serum) + 1% Penicillin-Streptomycin. Cells in the logarithmic growth phase were digested with trypsin-EDTA, centrifuged, and resuspended. DLD-1 BRCA2(-/-) cells were seeded at 1,000 cells/well in sterile 96-well opaque plates, 75 µl per well. After seeding, the cell culture plates were incubated overnight at 37 °C with 5% CO2 before adhesion, followed by treatment with the test compounds. • 2. DLD-1 BRCA2(-/-) Cell Drug Treatment: The test compound was prepared as a 10 mM stock solution using DMSO. The test compound was then diluted to a 4× working solution using growth medium (starting at 40 µM, with 9 4-fold dilutions). 25 µl of 4× working solution was added to each well to achieve final concentrations of 10000, 2500, 625, 156, 39, 9.7, 2.4, 0.61, and 0.152 nM, respectively. Blank control wells containing the same DMSO concentration were also included, with three replicates for each concentration. After adding the test compound, the cells were incubated at 37 °C with 5% CO2 for 7 days. • 3. After incubation, 100 µl of CellTiter-Glo® Reagent was added to each well, and […] intensity was measured. A curve was fitted using GraphPad software, and the IC50 value for cell proliferation inhibition was calculated.

Chain of PARP1 (P09874 whole entry): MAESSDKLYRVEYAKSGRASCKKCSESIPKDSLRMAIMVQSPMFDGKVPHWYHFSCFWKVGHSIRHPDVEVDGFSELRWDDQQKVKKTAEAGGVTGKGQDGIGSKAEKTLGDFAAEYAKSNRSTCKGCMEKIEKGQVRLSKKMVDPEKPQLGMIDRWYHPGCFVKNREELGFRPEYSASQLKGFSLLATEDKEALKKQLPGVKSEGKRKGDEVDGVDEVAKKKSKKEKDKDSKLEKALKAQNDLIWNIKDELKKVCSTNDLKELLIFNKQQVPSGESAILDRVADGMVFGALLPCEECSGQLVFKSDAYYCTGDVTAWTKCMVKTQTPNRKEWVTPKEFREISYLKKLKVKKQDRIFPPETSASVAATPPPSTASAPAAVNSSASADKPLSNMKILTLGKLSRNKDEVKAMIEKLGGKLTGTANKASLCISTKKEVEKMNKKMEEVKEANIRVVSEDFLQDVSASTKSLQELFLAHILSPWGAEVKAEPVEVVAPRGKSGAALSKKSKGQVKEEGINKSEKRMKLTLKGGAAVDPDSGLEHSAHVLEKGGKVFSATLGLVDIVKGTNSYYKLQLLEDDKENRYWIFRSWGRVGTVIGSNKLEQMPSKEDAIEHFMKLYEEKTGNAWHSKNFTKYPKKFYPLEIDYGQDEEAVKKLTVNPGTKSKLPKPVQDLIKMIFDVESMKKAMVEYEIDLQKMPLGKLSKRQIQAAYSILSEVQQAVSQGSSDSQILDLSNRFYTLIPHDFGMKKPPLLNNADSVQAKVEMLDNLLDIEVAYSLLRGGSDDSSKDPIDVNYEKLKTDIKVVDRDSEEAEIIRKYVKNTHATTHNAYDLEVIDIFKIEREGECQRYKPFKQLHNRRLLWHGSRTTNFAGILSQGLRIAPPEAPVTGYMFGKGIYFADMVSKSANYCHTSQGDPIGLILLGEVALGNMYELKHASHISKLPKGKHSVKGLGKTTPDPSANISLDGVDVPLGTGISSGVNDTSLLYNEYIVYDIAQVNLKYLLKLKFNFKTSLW

IC50 (PARP1) [nM]	Selectivity PARP2/PARP1 (PARP1)	IC50 (PARP2) [nM]	IC50 (DLD-1 BRCA2(-/-) cells) [nM]	Structure (SMILES)
3.6	46.9	169		CNC(=O)c1ccc(N2CCN(Cc3cc(OC(F)(F)F)c4nc(C)c(=O)[nH]c4c3)CC2)c(F)n1 [Example 17, 6-fluoro-N-methyl-5-(4-((2-methyl-3-oxo-8-(trifluoromethoxy)-3,4-dihydroquinoxalin-6-yl)methyl)piperazin-1-yl)picolinamide]
5.5	1813.7	> 10000	31.8	CNC(=O)c1ccc(N2CCN(Cc3cc(C#CC4CC4)c4nc(C)c(=O)[nH]c4c3F)CC2)c(F)n1 [Example 22, 5-(4-((8-(cyclopropylethynyl)-5-fluoro-2-methyl-3-oxo-3,4-dihydroquinoxalin-6-yl)methyl)piperazin-1-yl)-6-fluoro-N-methylpicolinamide]
10	1004.6	> 10000		CNC(=O)c1ccc(C2=CCN(Cc3cc(C#CC4CC4)c4nc(C)c(=O)[nH]c4c3F)CC2)c(F)n1 [Example 24, 1'-((8-(cyclopropylethynyl)-5-fluoro-2-methyl-3-oxo-3,4-dihydroquinoxalin-6-yl)methyl)-2-fluoro-N-methyl-1',2',3',6'-tetrahydro-[3,4'-bipyridine]-6-carboxamide]
2.2	278.9	626		CNC(=O)c1ccc(N2CCN(Cc3cc(Oc4ccccc4F)c4nc(C)c(=O)[nH]c4c3)CC2)c(F)n1 [Example 27, 6-fluoro-5-(4-((8-(2-fluorophenoxy)-2-methyl-3-oxo-3,4-dihydroquinoxalin-6-yl)methyl)piperazin-1-yl)-N-methylpicolinamide]
1.8	356.3	654		CNC(=O)c1ccc(N2CCN(Cc3cc(Oc4cccc(F)c4)c4nc(C)c(=O)[nH]c4c3)CC2)c(F)n1 [Example 28, 6-fluoro-5-(4-((8-(3-fluorophenoxy)-2-methyl-3-oxo-3,4-dihydroquinoxalin-6-yl)methyl)piperazin-1-yl)-N-methylpicolinamide]
11.5	217.3	2500		CNC(=O)c1ccc(N2CCN(Cc3cc(Oc4ccncc4)c4nc(C)c(=O)[nH]c4c3)CC2)c(F)n1 [Example 29, 6-fluoro-N-methyl-5-(4-((2-methyl-3-oxo-8-(pyridin-4-yloxy)-3,4-dihydroquinoxalin-6-yl)methyl)piperazin-1-yl)picolinamide]
2.5	18.4	45.4		CNC(=O)c1ccc(N2CCN(Cc3cc(C4CCCC4)c4nc(C)c(=O)[nH]c4c3)CC2)c(F)n1 [Example 31, 5-(4-((8-cyclopentyl-2-methyl-3-oxo-3,4-dihydroquinoxalin-6-yl)methyl)piperazin-1-yl)-6-fluoro-N-methylpicolinamide]
2.8	359.1	1020		CNC(=O)c1ccc(N2CCN(Cc3cc(OC(C)C(F)(F)F)c4nc(C)c(=O)[nH]c4c3)CC2)c(F)n1 (stereo not drawn) [Example 34, 6-fluoro-N-methyl-5-(4-((2-methyl-3-oxo-8-((1,1,1-trifluoropropan-2-yl)oxy)-3,4-dihydroquinoxalin-6-yl)methyl)piperazin-1-yl)picolinamide]
3	139.8	413		CC#Cc1cc(CN2CCN(c3ccc(C#N)nc3)CC2)cc2[nH]c(=O)c(C)nc12 [Example 36, 5-(4-((2-methyl-3-oxo-8-(prop-1-yn-1-yl)-3,4-dihydroquinoxalin-6-yl)methyl)piperazin-1-yl)picolinonitrile]
12.9	148.2	1910		CC#Cc1cc(CN2CCN(c3ccc(OC(F)F)nc3)CC2)cc2[nH]c(=O)c(C)nc12 [Example 37, 7-((4-(6-(difluoromethoxy)pyridin-3-yl)piperazin-1-yl)methyl)-3-methyl-5-(prop-1-yn-1-yl)quinoxalin-2(1H)-one]
5.7	>1756.9	> 10000		CC#Cc1cc(CN2CCN(c3ccc(C(=O)NC)nc3)CC2)c(F)c2[nH]c(=O)c(C)nc12 [Example 40, 5-(4-((5-fluoro-2-methyl-3-oxo-8-(prop-1-yn-1-yl)-3,4-dihydroquinoxalin-6-yl)methyl)piperazin-1-yl)-N-methylpicolinamide]
			23.6	CC#Cc1cc(CN2CCN(c3ccc(C(=O)NC)nc3F)CC2)c(F)c2[nH]c(=O)c(C3CC3)nc12 [Example 48, 5-(4-((2-cyclopropyl-5-fluoro-3-oxo-8-(prop-1-yn-1-yl)-3,4-dihydroquinoxalin-6-yl)methyl)piperazin-1-yl)-6-fluoro-N-methylpicolinamide]
6.4	>1554	> 10000		CNC(=O)c1ccc(C2=CCN(Cc3cc(OC(F)F)c4nc(C)c(=O)[nH]c4c3F)CC2)c(C)n1 [Example 62, 1'-((8-(difluoromethoxy)-5-fluoro-2-methyl-3-oxo-3,4-dihydroquinoxalin-6-yl)methyl)-N,2-dimethyl-1',2',3',6'-tetrahydro-[3,4'-bipyridine]-6-carboxamide]
3.6	46.9	169	9.8	CNC(=O)c1ccc(N2CCN(Cc3cc(OC(F)(F)F)c4nc(C)c(=O)[nH]c4c3)CC2)c(C)n1 [Example 64, N,6-dimethyl-5-(4-((2-methyl-3-oxo-8-(trifluoromethoxy)-3,4-dihydroquinoxalin-6-yl)methyl)piperazin-1-yl)picolinamide]
1.9	42.1	80	4.27	CCONC(=O)c1ccc(N2CCN(Cc3cc(OC(F)F)c4nc(C)c(=O)[nH]c4c3)CC2)c(F)n1 [Example 65, 5-(4-((8-(difluoromethoxy)-2-methyl-3-oxo-3,4-dihydroquinoxalin-6-yl)methyl)piperazin-1-yl)-N-ethoxy-6-fluoropicolinamide]
2.4	59.6	143	7.02	CCNNC(=O)c1ccc(N2CCN(Cc3cc(OC(F)F)c4nc(C)c(=O)[nH]c4c3)CC2)c(F)n1 [Example 66, 5-(4-((8-(difluoromethoxy)-2-methyl-3-oxo-3,4-dihydroquinoxalin-6-yl)methyl)piperazin-1-yl)-N'-ethyl-6-fluoropicolinohydrazide]
6.9	>1444	> 10000		CC#Cc1cc(CN2CC=C(c3ccc(C(=O)NC4CC4)nc3)CC2)c(F)c2[nH]c(=O)c(C)nc12 [Example 67, N-cyclopropyl-1'-((5-fluoro-2-methyl-3-oxo-8-(prop-1-yn-1-yl)-3,4-dihydroquinoxalin-6-yl)methyl)-1',2',3',6'-tetrahydro-[3,4'-bipyridine]-6-carboxamide]
5.7	472.0	2680		CNC(=O)c1ccc(N2CCN(Cc3cc(-c4cccc(OC)c4)c4nc(C)c(=O)[nH]c4c3)CC2)c(F)n1 [Example 73]

Structure (SMILES)	IC50 (PARP1) [nM]	Selectivity PARP2/PARP1 (PARP1)	IC50 (PARP2) [nM]	IC50 (DLD-1 BRCA2(-/-) cells) [nM]
CC#Cc1cc(CN2CC=C(c3ccc(C(=O)NC)nc3F)CC2)c(F)c2[nH]c(=O)c(C)nc12 [Example 23, 2-fluoro-1'-((5-fluoro-2-methyl-3-oxo-8-(prop-1-yn-1-yl)-3,4-dihydroquinoxalin-6-yl)methyl)-N-methyl-1',2',3',6'-tetrahydro-[3,4'-bipyridine]-6-carboxamide]	2.4	4113.1	> 10000	
CC#Cc1cc(CN2CC=C(c3ccc(C(=O)NC)nc3)CC2)c(F)c2[nH]c(=O)c(C)nc12 [Example 50, 1'-((5-fluoro-2-methyl-3-oxo-8-(prop-1-yn-1-yl)-3,4-dihydroquinoxalin-6-yl)methyl)-N-methyl-1',2',3',6'-tetrahydro-[3,4'-bipyridine]-6-carboxamide]	3.3	>3042	> 10000	
CC#Cc1cc(CN2CC=C(c3ccc(C(=O)NC)nc3)CC2)cc2[nH]c(=O)c(C)nc12 [Example 51, N-methyl-1'-((2-methyl-3-oxo-8-(prop-1-yn-1-yl)-3,4-dihydroquinoxalin-6-yl)methyl)-1',2',3',6'-tetrahydro-[3,4'-bipyridine]-6-carboxamide]	7.2	198.0	1420	
CNC(=O)c1ccc(C2=CCN(Cc3cc(OC(F)F)c4nc(C)c(=O)[nH]c4c3)CC2)c(C)n1 [Example 58, 1'-((8-(difluoromethoxy)-2-methyl-3-oxo-3,4-dihydroquinoxalin-6-yl)methyl)-N,2-dimethyl-1',2',3',6'-tetrahydro-[3,4'-bipyridine]-6-carboxamide]	1.1	2192.4	2480	13.6
